≈ marks a conversion by molar mass, not a printed value. Each block holds one compound with its values, some of them ahead of it.
Tests used:
Type in all cases: cell-based
Escherichia coli NIHJ = assay: MIC against standard strain, plate method; conditions: unit assumed
Description: (§1) The minimum inhibitory concentrations (MIC) was determined by the plate method disclosed in "Chemotherapy" (Japan), Vol. 16, (1968), pages 98 - 99. The culture medium used was a Heart infusion agar (pH 7.4). The number of the cells per plate used in the inoculum as 10^4 (10^6 cells/ml).

Klebsiella pneumoniae [1] = assay: MIC against standard strain, plate method; conditions: unit assumed
Description: as §1

Proteus vulgaris 3027 = assay: MIC against standard strain, plate method; conditions: Proteus vulgaris 3027, standard strain; unit assumed
Description: as §1

[2] = system: Pseudomonas aeruginosa I.F.O.; assay: MIC against standard strain, plate method; conditions: unit assumed
Description: as §1

[3] = system: Staphylococcus aureus 209p; assay: MIC against standard strain, plate method; conditions: unit assumed
Description: as §1

Staphylococcus aureus = assay: MIC against clinical isolates; conditions: unit assumed
Escherichia coli = assay: MIC against clinical isolates; conditions: unit assumed
Pseudomonas aeruginosa = assay: MIC against clinical isolates; conditions: unit assumed
Klebsiella pneumoniae [4] = assay: MIC against clinical isolates; conditions: unit assumed

MIC (Escherichia coli NIHJ): < 0.1 µg/mL
MIC (Klebsiella pneumoniae [1]): 1.57 µg/mL (≈ 2.54 µM)
MIC (Proteus vulgaris 3027): 3.13 µg/mL (≈ 5.07 µM)
MIC [2]: 25 µg/mL (≈ 40.5 µM)
MIC [3]: 0.79 µg/mL (≈ 1.28 µM)
Compound: CN1CCN(C(=O)NC(C(=O)NC2C(=O)N3C(C(=O)O)=C(CSc4nncs4)CSC23)c2ccccc2)C(=O)C1=O (single isomer, unassigned) [compound 64]

MIC (Escherichia coli NIHJ): 0.79 µg/mL (≈ 1.29 µM)
MIC (Klebsiella pneumoniae [1]): 3.13 µg/mL (≈ 5.09 µM)
MIC (Proteus vulgaris 3027): 3.13 µg/mL (≈ 5.09 µM)
MIC [2]: 25 µg/mL (≈ 40.7 µM)
MIC [3]: 3.13 µg/mL (≈ 5.09 µM)
Compound: CN1CCN(C(=O)NC(C(=O)NC2C(=O)N3C(C(=O)O)=C(CSc4nncn4C)CSC23)c2ccccc2)C(=O)C1=O (single isomer, unassigned) [compound 65]

MIC (Escherichia coli NIHJ): 1.57 µg/mL (≈ 2.45 µM)
MIC (Klebsiella pneumoniae [1]): 1.56 µg/mL (≈ 2.43 µM)
MIC (Proteus vulgaris 3027): < 0.79 µg/mL
MIC [2]: 100 µg/mL (≈ 156 µM)
MIC [3]: < 0.79 µg/mL
Compound: CCN1CCN(C(=O)NC(C(=O)NC2C(=O)N3C(C(=O)O)=C(CSc4cccc[n+]4[O-])CSC23)c2ccccc2)C(=O)C1=O (single isomer, unassigned) [compound 70]

Compound: O=C(Cc1cccs1)N[C@@H]1C(=O)N2C(C(=O)[O-])=C(C[n+]3ccccc3)CS[C@H]12 [Cephaloridine, reference compound]
MIC (Escherichia coli NIHJ): > 3.13 µg/mL
MIC (Klebsiella pneumoniae [1]): 200 µg/mL (≈ 481 µM)
MIC [2]: 200 µg/mL (≈ 481 µM)
MIC [3]: < 1.57 µg/mL

Compound: O=C(Cc1cccs1)N[C@@H]1C(=O)N2C(C(=O)[O-])=C(C[n+]3ccccc3)CS[C@H]12 [Cephalorizine, reference compound]
MIC (Staphylococcus aureus; clinical isolate F-1): < 0.4 µg/mL
MIC (Staphylococcus aureus; clinical isolate F-2): < 0.4 µg/mL
MIC (Staphylococcus aureus; clinical isolate F-3): < 0.4 µg/mL
MIC (Staphylococcus aureus; clinical isolate F-4): < 0.4 µg/mL
MIC (Staphylococcus aureus; clinical isolate F-5): 0.78 µg/mL (≈ 1.88 µM)
MIC (Staphylococcus aureus; clinical isolate MS 8588): < 0.4 µg/mL
MIC (Staphylococcus aureus; clinical isolate MS 8596): < 0.4 µg/mL
MIC (Staphylococcus aureus; clinical isolate MS 8619): < 0.4 µg/mL
MIC (Staphylococcus aureus; clinical isolate MS 8684): < 0.4 µg/mL
MIC (Staphylococcus aureus; clinical isolate MS 8713): < 0.4 µg/mL
MIC (Escherichia coli; clinical isolate GN 3435): 3.13 µg/mL (≈ 7.53 µM)
MIC (Escherichia coli; clinical isolate GN 3452): 3.13 µg/mL (≈ 7.53 µM)
MIC (Escherichia coli; clinical isolate GN 3465): 50 µg/mL (≈ 120 µM)
MIC (Escherichia coli; clinical isolate GN 3481): 3.13 µg/mL (≈ 7.53 µM)
MIC (Escherichia coli; clinical isolate GN 3611): 100 µg/mL (≈ 241 µM)
MIC (Escherichia coli; clinical isolate K-1): 3.13 µg/mL (≈ 7.53 µM)
MIC (Escherichia coli; clinical isolate K-2): 3.13 µg/mL (≈ 7.53 µM)
MIC (Escherichia coli; clinical isolate K-3): 200 µg/mL (≈ 481 µM)
MIC (Escherichia coli; clinical isolate K-4): 6.25 µg/mL (≈ 15 µM)
MIC (Pseudomonas aeruginosa; clinical isolate GN 82): > 200 µg/mL
MIC (Pseudomonas aeruginosa; clinical isolate GN 163): > 200 µg/mL
MIC (Pseudomonas aeruginosa; clinical isolate GN 221): > 200 µg/mL
MIC (Pseudomonas aeruginosa; clinical isolate GN 244): > 200 µg/mL
MIC (Pseudomonas aeruginosa; clinical isolate GN 376): > 200 µg/mL
MIC (Pseudomonas aeruginosa; clinical isolate GN 383): > 200 µg/mL
MIC (Pseudomonas aeruginosa; clinical isolate GN 1035): > 200 µg/mL
MIC (Pseudomonas aeruginosa; clinical isolate GN 1091): > 200 µg/mL
MIC (Pseudomonas aeruginosa; clinical isolate GN 2565): > 200 µg/mL
MIC (Pseudomonas aeruginosa; clinical isolate GN 2987): > 200 µg/mL
MIC (Pseudomonas aeruginosa; clinical isolate S-1): > 200 µg/mL
MIC (Pseudomonas aeruginosa; clinical isolate S-2): > 200 µg/mL
MIC (Pseudomonas aeruginosa; clinical isolate S-3): > 200 µg/mL
MIC (Pseudomonas aeruginosa; clinical isolate S-4): > 200 µg/mL
MIC (Klebsiella pneumoniae [4]; clinical isolate GN 917): 3.13 µg/mL (≈ 7.53 µM)
MIC (Klebsiella pneumoniae [4]; clinical isolate GN 4081): 12.5 µg/mL (≈ 30.1 µM)
MIC (Klebsiella pneumoniae [4]; clinical isolate GN 4117): 12.5 µg/mL (≈ 30.1 µM)

Compound: CC1(C)S[C@@H]2[C@H](NC(=O)[C@H](NC(=O)N3CCN(C(=O)C(Cl)Cl)CC3=O)c3ccccc3)C(=O)N2[C@H]1C(=O)O [compound 2]
MIC (Escherichia coli NIHJ): < 1.57 µg/mL
MIC (Klebsiella pneumoniae [1]): 12.5 µg/mL (≈ 21.3 µM)
MIC (Proteus vulgaris 3027): 6.25 µg/mL (≈ 10.7 µM)
MIC [2]: 50 µg/mL (≈ 85.3 µM)
MIC [3]: < 1.57 µg/mL

Compound: CC1(C)S[C@@H]2[C@H](NC(=O)[C@H](NC(=O)N3CCN(C(=O)C4CCCCC4)CC3=O)c3ccccc3)C(=O)N2[C@H]1C(=O)O [compound 3]
MIC (Escherichia coli NIHJ): < 1.57 µg/mL
MIC (Klebsiella pneumoniae [1]): 3.13 µg/mL (≈ 5.34 µM)
MIC (Proteus vulgaris 3027): 3.13 µg/mL (≈ 5.34 µM)
MIC [2]: 100 µg/mL (≈ 171 µM)
MIC [3]: < 1.57 µg/mL

Compound: CC(=O)N1CCN(C(=O)N[C@@H](C(=O)N[C@@H]2C(=O)N3[C@@H]2SC(C)(C)[C@@H]3C(=O)O)c2ccccc2)C(=O)C1C (stereo partly drawn) [compound 4]
MIC (Escherichia coli NIHJ): < 1.57 µg/mL
MIC (Klebsiella pneumoniae [1]): 12.5 µg/mL (≈ 23.5 µM)
MIC (Proteus vulgaris 3027): 3.13 µg/mL (≈ 5.89 µM)
MIC [2]: 25 µg/mL (≈ 47 µM)
MIC [3]: < 1.57 µg/mL

Compound: CC1(C)S[C@@H]2[C@H](NC(=O)[C@H](NC(=O)N3CCN(S(C)(=O)=O)CC3=O)c3ccccc3)C(=O)N2[C@H]1C(=O)O [compound 5]
MIC (Escherichia coli NIHJ): < 1.57 µg/mL
MIC (Klebsiella pneumoniae [1]): 12.5 µg/mL (≈ 22.6 µM)
MIC (Proteus vulgaris 3027): < 1.57 µg/mL
MIC [2]: 25 µg/mL (≈ 45.2 µM)
MIC [3]: < 1.57 µg/mL

Compound: CCCCCC(=O)N1CCN(C(=O)N[C@@H](C(=O)N[C@@H]2C(=O)N3[C@@H]2SC(C)(C)[C@@H]3C(=O)O)c2ccccc2)C(=O)C1 [compound 6]
MIC (Escherichia coli NIHJ): 3.13 µg/mL (≈ 5.46 µM)
MIC (Klebsiella pneumoniae [1]): 6.25 µg/mL (≈ 10.9 µM)
MIC (Proteus vulgaris 3027): 6.25 µg/mL (≈ 10.9 µM)
MIC [2]: 50 µg/mL (≈ 87.2 µM)
MIC [3]: 3.13 µg/mL (≈ 5.46 µM)

Compound: CC1(C)S[C@@H]2[C@H](NC(=O)[C@H](NC(=O)N3CCN(C(=O)c4ccccc4)CC3=O)c3ccccc3)C(=O)N2[C@H]1C(=O)O [compound 7]
MIC (Escherichia coli NIHJ): < 1.57 µg/mL
MIC (Klebsiella pneumoniae [1]): 12.5 µg/mL (≈ 21.6 µM)
MIC (Proteus vulgaris 3027): 6.25 µg/mL (≈ 10.8 µM)
MIC [2]: 200 µg/mL (≈ 345 µM)
MIC [3]: < 1.57 µg/mL

Compound: CC1(C)S[C@@H]2[C@H](NC(=O)[C@H](NC(=O)N3CCN(C(=O)c4ccc(Cl)cc4)CC3=O)c3ccccc3)C(=O)N2[C@H]1C(=O)O [compound 8]
MIC (Escherichia coli NIHJ): < 1.57 µg/mL
MIC (Klebsiella pneumoniae [1]): 6.25 µg/mL (≈ 10.2 µM)
MIC [3]: < 1.57 µg/mL

Compound: Cc1ccc(C(=O)N2CCN(C(=O)N[C@@H](C(=O)N[C@@H]3C(=O)N4[C@@H]3SC(C)(C)[C@@H]4C(=O)O)c3ccccc3)C(=O)C2)cc1 [compound 9]
MIC (Escherichia coli NIHJ): 3.13 µg/mL (≈ 5.27 µM)
MIC (Klebsiella pneumoniae [1]): 3.13 µg/mL (≈ 5.27 µM)
MIC (Proteus vulgaris 3027): 3.13 µg/mL (≈ 5.27 µM)
MIC [2]: 100 µg/mL (≈ 168 µM)
MIC [3]: < 1.57 µg/mL
